Source: PubChem BioAssay AID192 (DTP/NCI, 2004)
Where “and” joins values, the source holds several entries; their conditions need not be identical. Equal values may be shown once. Inconclusive results and toxic doses are left out. Peptide text beside a SMILES is read from it.

System: BDF1 mice, B16 melanoma ip, median survival T/C
Assay: NCI In Vivo Anticancer Drug Screen. Data for tumor model B16 Melanoma (intraperitoneal) in B6D2F1 (BDF1) mice
Details: endpoint: median survival time, higher = longer survival
Procedure, shortened: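 Antitumor activity is assessed in mice bearing a transplanted tumor, with survival or tumor size compared against vehicle-dosed controls and expressed as T/C.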

[1] = dose: 12.5 mg/kg/injection, schedule: Q01DX009 (ip), vehicle: saline
[2] = dose: 25.0 mg/kg/injection, schedule: Q01DX009 (ip), vehicle: saline
[3] = dose: 25.0 mg/kg/injection, schedule: Q01DX009 (ip), vehicle: water
[4] = dose: 50.0 mg/kg/injection, schedule: Q01DX009 (ip), vehicle: saline
[5] = dose: 50.0 mg/kg/injection, schedule: Q01DX009 (ip), vehicle: water
[6] = dose: 6.25 mg/kg/injection, schedule: Q01DX009 (ip), vehicle: Klucel (hydroxypropylcellulose) (HPC)
[7] = dose: 12.5 mg/kg/injection, schedule: Q01DX009 (ip), vehicle: Klucel (hydroxypropylcellulose) (HPC)
[8] = dose: 25.0 mg/kg/injection, schedule: Q01DX009 (ip), vehicle: Klucel (hydroxypropylcellulose) (HPC)
[9] = dose: 50.0 mg/kg/injection, schedule: Q01DX009 (ip), vehicle: Klucel (hydroxypropylcellulose) (HPC)
[10] = dose: 100.0 mg/kg/injection, schedule: Q01DX009 (ip), vehicle: Klucel (hydroxypropylcellulose) (HPC)
[11] = dose: 200.0 mg/kg/injection, schedule: Q01DX009 (ip), vehicle: Klucel (hydroxypropylcellulose) (HPC)
[12] = dose: 400.0 mg/kg/injection, schedule: Q01DX009 (ip), vehicle: Klucel (hydroxypropylcellulose) (HPC)
[13] = dose: 6.25 mg/kg/injection, schedule: Q01DX009 (ip), vehicle: saline
[14] = dose: 100.0 mg/kg/injection, schedule: Q01DX009 (ip), vehicle: saline
[15] = dose: 12.5 mg/kg/injection, schedule: Q01DX009 (ip), vehicle: saline with Tween-80
[16] = dose: 1.25 mg/kg/injection, schedule: Q01DX009 (ip), vehicle: saline with Tween-80
[17] = dose: 2.5 mg/kg/injection, schedule: Q01DX009 (ip), vehicle: saline with Tween-80
[18] = dose: 25.0 mg/kg/injection, schedule: Q01DX009 (ip), vehicle: saline with Tween-80
[19] = dose: 50.0 mg/kg/injection, schedule: Q01DX009 (ip), vehicle: saline with Tween-80
[20] = dose: 100.0 mg/kg/injection, schedule: Q01DX009 (ip), vehicle: saline with Tween-80
[21] = dose: 0.78 mg/kg/injection, schedule: Q01DX009 (ip), vehicle: Klucel (hydroxypropylcellulose) (HPC)
[22] = dose: 1.56 mg/kg/injection, schedule: Q01DX009 (ip), vehicle: Klucel (hydroxypropylcellulose) (HPC)
[23] = dose: 3.12 mg/kg/injection, schedule: Q01DX009 (ip), vehicle: Klucel (hydroxypropylcellulose) (HPC)
[24] = dose: 25.0 mg/kg/injection, schedule: Q04DX003 (ip), vehicle: saline with Tween-80
[25] = dose: 50.0 mg/kg/injection, schedule: Q04DX003 (ip), vehicle: saline with Tween-80

## O=C1C(=O)c2ccccc2C(O)=C1CC=C(Cl)Cl
dose: 6.2 mg/kg/injection, schedule: Q01DX009 (ip), vehicle: water
  T/C: 93 % of control
[1]
  T/C: 100 % of control
dose: 12.5 mg/kg/injection, schedule: Q01DX009 (ip), vehicle: water
  T/C: 93 % of control
[2]
  T/C: 102 % of control
[3]
  T/C: 100 % of control
dose: 25.0 mg/kg/injection, schedule: Q01DX009 (oral), vehicle: water
  T/C: 103 % of control and 106 % of control
[4]
  T/C: 100 % of control
[5]
  T/C: 100 % of control
dose: 50.0 mg/kg/injection, schedule: Q01DX009 (oral), vehicle: saline
  T/C: 105 % of control
dose: 50.0 mg/kg/injection, schedule: Q01DX009 (oral), vehicle: water
  T/C: 106 % of control
dose: 75.0 mg/kg/injection, schedule: Q01DX009 (oral), vehicle: water
  T/C: 110 % of control
dose: 100.0 mg/kg/injection, schedule: Q01DX009 (oral), vehicle: saline
  T/C: 116 % of control
dose: 100.0 mg/kg/injection, schedule: Q01DX009 (oral), vehicle: water
  T/C: 106 % of control and 113 % of control
dose: 200.0 mg/kg/injection, schedule: Q01DX009 (oral), vehicle: water
  T/C: 106 % of control

## CCCCN(CCCC)C(Cl)=Nc1ccccc1
[6]
  T/C: 89 % of control and 99 % of control
[7]
  T/C: 101 % of control and 102 % of control
[8]
  T/C: 101 % of control
[9]
  T/C: 96 % of control and 103 % of control
[10]
  T/C: 93 % of control and 105 % of control
[11]
  T/C: 88 % of control and 100 % of control

## Nc1nc([Se])c2ncn(C3CC(O)C(CO)O3)c2n1 (configuration not stated)
[6]
  T/C: 105 % of control
[7]
  T/C: 124 % of control
[8]
  T/C: 122 % of control
[9]
  T/C: 111 % of control

## O=[N+]([O-])c1ccc(Oc2ccc(Cl)cc2)cc1
[10]
  T/C: 93 % of control
[11]
  T/C: 93 % of control
[12]
  T/C: 100 % of control

## Cc1cc(C)c(OCC2CO2)c(C)c1 (configuration not stated)
[10]
  T/C: 103 % of control
[11]
  T/C: 96 % of control
[12]
  T/C: 90 % of control

## CC1CC(NC(=S)S)CC(C)(C)C1 (configuration not stated)
dose: 0.25 mg/kg/injection, schedule: Q01DX009 (ip), vehicle: Klucel (hydroxypropylcellulose) (HPC)
  T/C: 96 % of control
dose: 0.5 mg/kg/injection, schedule: Q01DX009 (ip), vehicle: Klucel (hydroxypropylcellulose) (HPC)
  T/C: 96 % of control
dose: 1.0 mg/kg/injection, schedule: Q01DX009 (ip), vehicle: Klucel (hydroxypropylcellulose) (HPC)
  T/C: 100 % of control

## CC(C)C(NC(=O)C(NC(=O)C(CCCN=C(N)N)NC(=O)C(N)CCCCN)C(C)C)C(N)=O (configuration not stated) (H-KRVV-NH2; configuration not given here)
[3]
  T/C: 97 % of control
[5]
  T/C: 96 % of control
dose: 100.0 mg/kg/injection, schedule: Q01DX009 (ip), vehicle: water
  T/C: 96 % of control
dose: 200.0 mg/kg/injection, schedule: Q01DX009 (ip), vehicle: water
  T/C: 99 % of control

## COc1ccc(COC=O)cc1
[10]
  T/C: 100 % of control
[11]
  T/C: 109 % of control
[12]
  T/C: 106 % of control

## CCN(CC)C(C)CN1c2ccccc2Sc2ccccc21 (configuration not stated)
[13]
  T/C: 95 % of control
[1]
  T/C: 105 % of control
[2]
  T/C: 105 % of control
[4]
  T/C: 112 % of control
[14]
  T/C: 112 % of control

## COc1cc(Cl)c(CC(=O)c2c[nH]c3ccccc23)cc1OC
dose: 6.25 mg/kg/injection, schedule: Q01DX009 (ip), vehicle: saline with Tween-80
  T/C: 100 % of control
[15]
  T/C: 89 % of control

## CC1=C(/C=C/C(C)=N/NC(N)=S)C(C)(C)CCC1
dose: 0.3 mg/kg/injection, schedule: Q01DX009 (ip), vehicle: saline with Tween-80
  T/C: 105 % of control
dose: 6.0 mg/kg/injection, schedule: Q01DX009 (ip), vehicle: saline with Tween-80
  T/C: 97 % of control
dose: 12.0 mg/kg/injection, schedule: Q01DX009 (ip), vehicle: saline with Tween-80
  T/C: 97 % of control

## Cc1[nH]ccc2c(C)c3nc4ccc(O)cc4c3cc12
dose: 2.5 mg/kg/injection, schedule: Q04DX003 (ip), vehicle: water
  T/C: 123 % of control
dose: 5.0 mg/kg/injection, schedule: Q04DX003 (ip), vehicle: water
  T/C: 121 % of control
dose: 20.0 mg/kg/injection, schedule: Q04DX003 (ip), vehicle: water
  T/C: 153 % of control
dose: 40.0 mg/kg/injection, schedule: Q04DX003 (ip), vehicle: water
  T/C: 113 % of control

## N#Cc1c(F)c(F)c(C#N)c(F)c1F
[16]
  T/C: 90 % of control
[17]
  T/C: 90 % of control

## CCC(N)CC
[2]
  T/C: 102 % of control
[4]
  T/C: 117 % of control

## O=S(=O)(CCBr)CCBr
[18]
  T/C: 93 % of control
[19]
  T/C: 93 % of control
[20]
  T/C: 98 % of control

## Cc1ccc(C(=O)[O][Hg][CH2]C2COC([CH2][Hg][O]C(=O)c3ccc(C)cc3)CO2)cc1 (configuration not stated)
dose: 0.09 mg/kg/injection, schedule: Q01DX009 (ip), vehicle: Klucel (hydroxypropylcellulose) (HPC)
  T/C: 92 % of control
dose: 0.19 mg/kg/injection, schedule: Q01DX009 (ip), vehicle: Klucel (hydroxypropylcellulose) (HPC)
  T/C: 87 % of control
dose: 0.39 mg/kg/injection, schedule: Q01DX009 (ip), vehicle: Klucel (hydroxypropylcellulose) (HPC)
  T/C: 99 % of control
[21]
  T/C: 100 % of control
[22]
  T/C: 100 % of control
[23]
  T/C: 94 % of control and 106 % of control
[6]
  T/C: 92 % of control and 107 % of control
[7]
  T/C: 94 % of control and 99 % of control
[8]
  T/C: 94 % of control and 96 % of control
[9]
  T/C: 89 % of control and 94 % of control

## CC(=O)CC(C)=O.CC(=O)CC(C)=O.CC(=O)CC(C)=O.[Cr]
[9]
  T/C: 96 % of control
[10]
  T/C: 97 % of control
[11]
  T/C: 90 % of control

## N#CCCCN1CCCCC1
[13]
  T/C: 100 % of control
[1]
  T/C: 100 % of control
[2]
  T/C: 111 % of control

## Cc1cc(C)c(S(=O)(=O)O)cc1C
[4]
  T/C: 115 % of control
[14]
  T/C: 104 % of control
dose: 200.0 mg/kg/injection, schedule: Q01DX009 (ip), vehicle: saline
  T/C: 87 % of control

## O=Nc1c(N=O)c(N=O)c(N=O)c(N=O)c1N=O
[16]
  T/C: 108 % of control
[17]
  T/C: 105 % of control
dose: 5.0 mg/kg/injection, schedule: Q01DX009 (ip), vehicle: saline with Tween-80
  T/C: 88 % of control and 100 % of control
dose: 10.0 mg/kg/injection, schedule: Q01DX009 (ip), vehicle: saline with Tween-80
  T/C: 104 % of control
dose: 20.0 mg/kg/injection, schedule: Q01DX009 (ip), vehicle: saline with Tween-80
  T/C: 87 % of control

## O=[N+]([O-])c1ccc2scc3c4ccccc4nc-3c2c1
[13]
  T/C: 90 % of control
[1]
  T/C: 99 % of control

## CCCC(=O)OCc1ccc(Cl)c(Cl)c1
dose: 16.5 mg/kg/injection, schedule: Q04DX003 (ip), vehicle: saline with Tween-80
  T/C: 91 % of control
[18]
  T/C: 93 % of control
[24]
  T/C: 102 % of control
dose: 37.5 mg/kg/injection, schedule: Q04DX003 (ip), vehicle: saline with Tween-80
  T/C: 102 % of control
[19]
  T/C: 97 % of control
[25]
  T/C: 118 % of control
[20]
  T/C: 100 % of control
dose: 100.0 mg/kg/injection, schedule: Q04DX003 (ip), vehicle: saline with Tween-80
  T/C: 123 % of control

## COC(=O)c1ccc[n+](CCc2c[nH]c3ccccc23)c1
[15]
  T/C: 108 % of control
[18]
  T/C: 99 % of control
[19]
  T/C: 97 % of control

## CCCC(=O)OCC1OC(n2cnc3c(=S)nc(N)[nH]c32)C(OC(=O)CCC)C1OC(=O)CCC (configuration not stated)
[21]
  T/C: 106 % of control
[22]
  T/C: 112 % of control
[23]
  T/C: 113 % of control
[6]
  T/C: 103 % of control and 106 % of control
[7]
  T/C: 87 % of control

## CN(C)/N=N/c1[nH]ncc1C(N)=O
dose: 50.0 mg/kg/injection, schedule: Q01DX009 (ip), vehicle: carboxymethylcellulose (CMC)
  T/C: 105 % of control

## C[N+](C)(C)C.N=C=O.N=C=O.N=C=O.N=C=O.[Co+2]
dose: 12.5 mg/kg/injection, schedule: Q04DX003 (ip), vehicle: saline with Tween-80
  T/C: 97 % of control
[24]
  T/C: 90 % of control
[25]
  T/C: 92 % of control
